# What was measured:
# [1] = tested on: sera from colon cancer patients; assay: Spot assay: reactivity of serologically defined colon cancer antigens with colon cancer patient sera; format: binding, human; conditions: reactive sera/sera tested; includes autologous where applicable; sera 1:200
# Method: Serum samples from patients with colon cancer were screened using a modification of the plaque assay, termed a spot assay. In this method, 80×120 mm nitrocellulose membranes were precoated with a film of NZY/0.7% Agarose/2.5 mM IPTG and placed on a reservoir layer of NZY/0.7% Agarose in a 86×128 mm Omni Tray (Nalge Nunc International Corp., Naperville, Ill.). Approximately 1.0×10^5 pfU of monoclonal phage encoding individual serologically defined colon cancer antigens, in a volume of 20 μl, were mixed with 20 μl of exponentially growing E. coli XL-1 Blue MRF and spotted (0.7-μl aliquots) on the precoated nitrocellulose membranes. Membranes were incubated for 15 hours at 37° C. A total of 75 different serologically defined colon cancer antigens were spotted in duplicate per nitrocellulose membrane. The agarose film was then removed from the membrane and the filters were processed for reactivity with individual serum samples (1:200 dilution), as described in Scanlan, et al., Int. J. Cancer 76:652-658 (1998) and Scanlan, et al., Int. J. Cancer 83:456-64, (1999).
# [2] = tested on: CD4+ T cells; assay: ELISPOT of peptide-stimulated CD4+ T cells from patients; format: cell-based, human; conditions: autologous targets presenting peptide
# Method: Given the correlation between humoral and cellular immunity observed with CT antigens such as NY-ESO-1 (Jager et al. J Exp Med. 1998 Jan. 19; 187(2):265-70) and SSX2 (Ayyoub et al. J Immunol. 2002 Feb. 15; 168(4):1717-22, Tureci et al. Cancer Res. 1996 Oct. 15; 56(20):4766-72.), these two patients were analyzed to look for the presence of T cell responses. Nine long peptides (30AA) were synthesized from the sequence of NY-CO-58 (SEQ ID NO:20) on the basis of the presence of anchor motifs for various class I molecules. Five prediction algorithms were used to map potential these potential anchor motifs which correspond to potential epitopes, resulting in the selection of the following polypeptides: 3-32 (SEQ ID NO:31), 51-80 (SEQ ID NO:35), 151-180 (SEQ ID NO:36), 271-300 (SEQ ID NO:37), 375-404 (SEQ ID NO:38), 403-432 (SEQ ID NO:33), 510-539 (SEQ ID NO:39), 633-662 (SEQ ID NO:40), and 692-721 (SEQ ID NO:34).
# CD8^+ and CD4^+ T cells were then purified from peripheral blood lymphocytes (PBLs) from the two patients and were stimulated with these peptides either individually or in pools of 2-3 peptides (Gnjatic et al. J Immunol. 2003 Feb. 1; 170(3):1191-6). The stimulated CD8^+ T cells were then tested for recognition of the same stimulator peptide(s), either individually or pools in standard ELISPOT assays (Jager Proc Natl Acad Sci USA. 2000 Apr. 25; 97(9):4760-5, Gnjatic et al. Proc Natl Acad Sci USA. 2000 Sep. 26; 97(20):10917-22).
# In these same patients CD4^+ T cell responses were investigated. CD4^+ T cells were stimulated with the peptides individually or in pools of 2-3 peptides as done with CD8^+ T cells. The stimulated peptides were tested in ELISPOT assays using autologous targets presenting the stimulator peptide(s). […] Recognition of control autologous targets, either unpulsed cells or cells presenting irrelevant peptide.
# An additional sample of PBLs was obtained from patient UKE-16. The patient remained positive for serum NY-CO-58 specific antibody. Again, CD4^+ T cells were stimulated with peptides derived from the NY-CO-58 sequence. This time additional “minimal” 12-mer epitopes selected from within the 30-mer polypeptides using the ProPred prediction algorithm (Singh, H. and Raghava, G. P. S. (2001) ProPred: Prediction of HLA-DR binding sites. Bioinformatics, 17(12), 1236-37, Propred server available online from Drs Raghava and Singh, Bioinformatics Center, Institute of Microbial Technology, Chandigarh, India). The 12-mer peptides corresponded to amino acid 15-26 (SEQ ID NO:32) and 699-710 (SEQ ID NO:41) of NY-CO-58 (SEQ ID NO:20). Analysis of the responses was carried out by ELISPOT assay as before. Peptide 15-26 was recognized by CD4^+ T cells from patient UKE-16 and represents a minimal epitope within amino acid 3-32 (SEQ ID NO:31). This also confirmed that the T cell reactivity was specific to the peptides and not due to an irrelevant contaminant, which would be unlikely to be present within two separate batches of synthetic peptides.
# [3] = tested on: peripheral blood lymphocytes; format: cell-based, HHD mice
# [4] = tested on: splenocytes; format: cell-based, HHD mice
Substance,"CD4+ T cell response, ELISPOT ([2]; patient UKE-1)","CD4+ T cell response, ELISPOT ([2]; patient UKE-16)",ex vivo ELISPOT response from PBL [3],ELISPOT response after in vitro restimulation [4],other results
"CO-95 (KIAA1416): serologically defined colon cancer antigen, protein SEQ ID NO:16",–,–,–,–,Reactivity of individual antigens [1]: 4/75
"EIYNGKLFDLLNKKAKLRVLEDGKQQVQVV (listed as Homo sapiens) [peptide 403-432, fragment of NY-CO-58, residues 403-432]",responded,–,–,–,–
"KHFSALRDVIKALRLAMQLEEQASRQISSK (listed as Homo sapiens) [692-721, fragment of NY-CO-58, residues 692-721]",reactive,reacted very clearly,–,–,–
KLGLEVYVT (listed as Homo sapiens),–,–,not seen,responses were detected,–
"LAIKIQRSNGLI (listed as Homo sapiens) [peptide 15-26, minimal 12-mer of NY-CO-58, residues 15-26]",–,recognized,–,–,–
LQARLFPGL (listed as Homo sapiens),–,–,not seen,responses were detected,–
MDSSLQARLFPGLAIKIQRSNGLIHSANVR (listed as Homo sapiens) [3-32],reactive,reacted very clearly,–,–,–
NLEKSCVSV (listed as Homo sapiens),–,–,not seen,responses were detected,–
SLLALKECI (listed as Homo sapiens),–,–,showed a response,confirmed,–

# Source: US7803382B2, “Method for inducing immune response to NY-CO-58” (Ludwig Institute for Cancer Research Ltd., priority 2001, dated 2010)
